Assay results as given in patent US9738655B2, “Tetrahydroisoquinolines containing substituted azoles as factor XIa inhibitors” (BRISTOL-MYERS SQUIBB COMPANY, priority 2013, dated 2017).
Structures can show the parent of a compound that is named as a salt.

Tests used:
[1] = target: purified human plasma kallikrein (Homo sapiens (Human), UniProt P03952); test: Plasma kallikrein enzyme inhibition assay (chromogenic substrate S-2302); type: biochemical
Procedure: The effectiveness of compounds of the present invention as inhibitors of the coagulation Factors XIa, VIIa, IXa, Xa, XIIa, plasma kallikrein or thrombin, can be determined using a relevant purified serine protease, respectively, and an appropriate synthetic substrate. The rate of hydrolysis of the chromogenic or fluorogenic substrate by the relevant serine protease was measured both in the absence and presence of compounds of the present invention. […] A decrease in the rate of absorbance or fluorescence change in the presence of inhibitor is indicative of enzyme inhibition. […] The results of this assay are expressed as the inhibitory constant, Ki.
Values of Ki were determined by allowing the protease to react with the substrate in the presence of the inhibitor.
The following relationships were used to calculate Ki values: (Vmax*S)/(Km+S); (vo−vs)/vs=I/(Ki(1+S/Km)) for a competitive inhibitor with one binding site; or vs/vo=A+((B−A)/1+((IC50/(I)n))); and Ki−IC50/((1+S/Km) for a competitive inhibitor where:

[2] = target: purified human Factor XIa (Homo sapiens (Human), UniProt P03951); test: Factor XIa enzyme inhibition assay (chromogenic substrate S-2366); conditions: read-out: Factor XIa Ki; measured at 25° C.
[3] = measured at 25° C. (no asterisk)

purified human plasma kallikrein, sequence (P03952 391-638): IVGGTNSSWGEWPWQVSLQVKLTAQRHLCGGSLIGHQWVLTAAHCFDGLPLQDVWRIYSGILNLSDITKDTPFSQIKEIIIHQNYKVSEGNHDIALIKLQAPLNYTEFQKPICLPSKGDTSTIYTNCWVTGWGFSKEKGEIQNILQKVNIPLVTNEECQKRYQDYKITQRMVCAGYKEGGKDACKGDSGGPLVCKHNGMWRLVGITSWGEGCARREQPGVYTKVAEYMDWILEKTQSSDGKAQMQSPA
purified human plasma kallikrein, sequence (P03952 20-390 partner): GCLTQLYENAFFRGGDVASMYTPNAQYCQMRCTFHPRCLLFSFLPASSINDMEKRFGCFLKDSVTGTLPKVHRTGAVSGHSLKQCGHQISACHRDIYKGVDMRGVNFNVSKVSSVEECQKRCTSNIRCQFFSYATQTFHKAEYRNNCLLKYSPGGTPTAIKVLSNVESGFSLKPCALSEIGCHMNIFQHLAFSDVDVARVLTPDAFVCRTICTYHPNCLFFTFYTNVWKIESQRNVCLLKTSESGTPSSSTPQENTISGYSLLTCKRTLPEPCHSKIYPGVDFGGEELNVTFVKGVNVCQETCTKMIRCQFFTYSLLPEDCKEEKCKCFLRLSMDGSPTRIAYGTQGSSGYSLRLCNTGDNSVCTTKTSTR
purified human Factor XIa, sequence (P03951 388-625): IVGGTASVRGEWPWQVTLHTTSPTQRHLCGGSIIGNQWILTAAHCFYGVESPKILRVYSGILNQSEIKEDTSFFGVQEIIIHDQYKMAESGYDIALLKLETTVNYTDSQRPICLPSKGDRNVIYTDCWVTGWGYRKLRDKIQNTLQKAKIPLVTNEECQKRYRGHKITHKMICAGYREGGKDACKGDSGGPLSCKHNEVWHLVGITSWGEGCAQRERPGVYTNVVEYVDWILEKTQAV
purified human Factor XIa, sequence (P03951 19-387 partner): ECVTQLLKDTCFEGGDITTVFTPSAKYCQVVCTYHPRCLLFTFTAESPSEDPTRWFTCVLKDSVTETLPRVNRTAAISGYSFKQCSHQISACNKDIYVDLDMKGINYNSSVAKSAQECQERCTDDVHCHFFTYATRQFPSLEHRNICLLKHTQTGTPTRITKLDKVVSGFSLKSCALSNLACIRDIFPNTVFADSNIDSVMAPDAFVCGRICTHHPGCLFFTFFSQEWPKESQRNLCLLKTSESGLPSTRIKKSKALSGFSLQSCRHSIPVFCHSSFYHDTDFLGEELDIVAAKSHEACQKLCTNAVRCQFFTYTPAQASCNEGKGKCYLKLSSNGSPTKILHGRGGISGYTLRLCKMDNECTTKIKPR

Row | SMILES | Ki [1, 3] [nM] | Ki [2] [nM] | Ki ([1]; measured at 37° C. (*)) [nM]
1 | CC(C)c1nnc2n1CCN(c1cccc3c1CCN(C(=O)c1cn(-c4cccc(Cl)c4F)nn1)[C@@H]3C(=O)Nc1ccc(C(=O)O)cc1)C2 [Example 66, (S)-4-(2-(1-(3-chloro-2-fluorophenyl)-1H-1,2,3-triazole-4-carbonyl)-5-(3-isopropyl-5,6-dihydro-[1,2,4]triazolo[4,3-a]pyrazin-7(8H)-yl)-1,2,3,4-tetrahydroisoquinoline-1-carboxamido)benzoic acid, TFA salt] | 2.57 | < 5 | 
2 | CC1(O)CCN(c2cccc3c2CCN(C(=O)c2cn(-c4cccc(Cl)c4F)nn2)C3C(=O)Nc2ccc(C(=O)O)cc2)CC1 (stereo not shown) [Example 67, 4-(2-(1-(3-chloro-2-fluorophenyl)-1H-1,2,3-triazole-4-carbonyl)-5-(4-hydroxy-4-methylpiperidin-1-yl)-1,2,3,4-tetrahydroisoquinoline-1-carboxamido)benzoic acid, TFA salt] | 7.17 | < 5 | 
3 | O=C1CCC2(CCN(c3cccc4c3CCN(C(=O)c3cnn(-c5cccc(Cl)c5F)c3)C4C(=O)Nc3ccc(C(=O)O)cc3)CC2)O1 (stereo not shown) [Example 75, 4-(2-(1-(3-chloro-2-fluorophenyl)-1H-pyrazole-4-carbonyl)-5-(2-oxo-1-oxa-8-azaspiro[4.5]-decan-8-yl)-1,2,3,4-tetrahydroisoquinoline-1-carboxamido)benzoic acid, TFA salt] | 25.8 | < 5 | 
4 | O=C1CCC2(CCN(c3cccc4c3CCN(C(=O)c3cn(-c5cccc(Cl)c5F)nn3)C4C(=O)Nc3ccc(C(=O)O)cc3)CC2)O1 (stereo not shown) [Example 76, 4-(2-(1-(3-chloro-2-fluorophenyl)-1H-1,2,3-triazole-4-carbonyl)-5-(2-oxo-1-oxa-8-azaspiro[4.5]decan-8-yl)-1,2,3,4-tetrahydroisoquinoline-1-carboximido)benzoic acid, TFA] | 15.3 | < 5 | 
5 | O=C1CCC2(CCN(c3cccc4c3CCN(C(=O)c3cn(-c5cccc(Cl)c5F)cn3)C4C(=O)Nc3ccc(C(=O)O)cc3)CC2)O1 (stereo not shown) [Example 77, 4-(2-(1-(3-chloro-2-fluorophenyl)-1H-imidazole-4-carbonyl)-5-(2-oxo-1-oxa-8-azaspiro[4.5]decan-8-yl)-1,2,3,4-tetrahydroisoquinoline-1-carboxamido)benzoic acid, TFA salt] | 7.96 | < 5 | 
6 | O=C(O)c1ccc(NC(=O)[C@H]2c3cccc(N4CCOCC4)c3CCN2C(=O)c2cnn(-c3cccc(Cl)c3F)c2)cc1 [Example 88, (R)-4-(2-(1-(3-Chloro-2-fluorophenyl)-1H-pyrazole-4-carbonyl)-5-morpholino-1,2,3,4-tetrahydroisoquinoline-1-carboxamido)benzoic acid, TFA salt] | 2080 | 391 | 
7 | O=C(O)c1ccc(NC(=O)[C@@H]2c3cccc(N4CCOCC4)c3CCN2C(=O)c2cnn(-c3cccc(Cl)c3F)c2)cc1 [Example 89, (S)-4-(2-(1-(3-Chloro-2-fluorophenyl)-1H-pyrazole-4-carbonyl)-5-morpholino-1,2,3,4-tetrahydroisoquinoline-1-carboxamido)benzoic acid, TFA salt] | 11.4 | < 5 | 
8 | O=C(O)c1ccc(NC(=O)[C@@H]2c3cccc(N4CCOCC4)c3CCN2C(=O)c2cn(-c3cccc(Cl)c3F)nn2)cc1 [Example 90, (S)-4-(2-(1-(3-Chloro-2-fluorophenyl)-1H-1,2,3-triazole-4-carbonyl)-5-morpholino-1,2,3,4-tetrahydroisoquinoline-1-carboxamido)benzoic acid, TFA salt] | 5.37 | < 5 | 
9 | CN(C)C1CCN(c2cccc3c2CCN(C(=O)c2cnn(-c4cccc(Cl)c4F)c2)C3C(=O)Nc2ccc(-c3ncco3)cc2)CC1 (stereo not shown) [Example 93, 2-(1-(3-Chloro-2-fluorophenyl)-1H-pyrazole-4-carbonyl)-5-(4-(dimethylamino)piperidin-1-yl)-N-(4-(oxazol-2-yl)phenyl)-1,2,3,4-tetrahydroisoquinoline-1-carboxamide, bis-TFA salt] | 9.65 | 6.65 | 
10 | CN(C)C1CCN(c2cccc3c2CCN(C(=O)c2cnn(-c4cccc(Cl)c4F)c2)C3C(=O)Nc2ccc(OCC3CCCO3)cc2)CC1 (stereo not shown) [Example 95, 2-(1-(3-chloro-2-fluorophenyl)-1H-pyrazole-4-carbonyl)-5-(4-(dimethylamino)piperidin-1-yl)-N-(4-((tetrahydrofuran-2-yl)methoxy)phenyl)-1,2,3,4-tetrahydroisoquinoline-1-carboxamide, TFA salt] | 16.9 | 14.7 | 
11 | COc1ccc(NC(=O)C2c3cccc(N4CCC(N(C)C)CC4)c3CCN2C(=O)c2cnn(-c3cccc(Cl)c3F)c2)cc1 (stereo not shown) [Example 97, 2-(1-(3-chloro-2-fluorophenyl)-1H-pyrazole-4-carbonyl)-5-(4-(dimethylamino)piperidin-1-yl)-N-(4-methoxyphenyl)-1,2,3,4-tetrahydroisoquinoline-1-carboxamide, TFA salt] | 21.7 | 9.13 | 

Further lines, results first:

Row | Ki [1, 3] [nM] | Ki [2] [nM] | Ki ([1]; measured at 37° C. (*)) [nM] | SMILES
12 | 9.92 | < 5 |  | O=C(O)c1ccc(NC(=O)C2c3cccc(N4CCOCC4=O)c3CCN2C(=O)c2cn(-c3cccc(Cl)c3F)nn2)cc1 (stereo not shown) [Example 69, 4-(2-(1-(3-chloro-2-fluorophenyl)-1H-1,2,3-triazole-4-carbonyl)-5-(3-oxomorpholino)-1,2,3,4-tetrahydroisoquinoline-1-carboxamido)benzoic acid]
13 |  | 913 | > 6000 | COC1CCN(c2cccc3c2CCN(C(=O)C2CC(=O)N(c4c(F)ccc(Cl)c4F)C2)C3C(=O)Nc2ccc(C(=O)O)cc2)CC1 (stereo not shown) [Example 71, 4-(2-(1-(3-chloro-2,6-difluorophenyl)-5-oxopyrrolidine-3-carbonyl)-5-(4-methoxypiperidin-1-yl)-1,2,3,4-tetrahydroisoquinoline-1-carboxamido)benzoic acid, TFA salt]
14 | 13.8 | < 5 |  | O=C(O)c1ccc(NC(=O)C2c3cccc(N4CCC(N5CCCC5=O)CC4)c3CCN2C(=O)c2cn(-c3cccc(Cl)c3F)nn2)cc1 (stereo not shown) [Example 72, 4-(2-(1-(3-chloro-2-fluorophenyl)-1H-1,2,3-triazole-4-carbonyl)-5-(4-(2-oxopyrrolidin-1-yl)piperidin-1-yl)-1,2,3,4-tetrahydroisoquinoline-1-carboxamido)benzoic acid, TFA salt]
15 | 27.6 | < 5 |  | O=C(O)c1ccc(NC(=O)C2c3cccc(N4CCC(N5CCCC5=O)CC4)c3CCN2C(=O)c2cnn(-c3cccc(Cl)c3F)c2)cc1 (stereo not shown) [Example 74, 4-(2-(1-(3-chloro-2-fluorophenyl)-1H-pyrazole-4-carbonyl)-5-(4-(2-oxopyrrolidin-1-yl)piperidin-1-yl)-1,2,3,4-tetrahydroisoquinoline-1-carboxamido)benzoic acid, TFA salt]
16 | 36.1 | 9.16 |  | O=C(O)c1ccc(NC(=O)C2c3cccc(N4CCCCC4)c3CCN2C(=O)c2cn(-c3cccc(Cl)c3F)nn2)cc1 (stereo not shown) [Example 78, 4-(2-(1-(3-chloro-2-fluorophenyl)-1H-1,2,3-triazole-4-carbonyl)-5-(piperidin-1-yl)-1,2,3,4-tetrahydroisoquinoline-1-carboxamido)benzoic acid, TFA salt]
17 | 719 | 114 |  | CN1CCN(c2cccc3c2CCN(C(=O)c2cn(-c4cccc(Cl)c4F)nn2)[C@H]3C(=O)Nc2ccc(C(=O)O)cc2)C(=O)C1 [Example 79, (R)-4-(2-(1-(3-chloro-2-fluorophenyl)-1H-1,2,3-triazole-4-carbonyl)-5-(4-methyl-2-oxopiperazin-1-yl)-1,2,3,4-tetrahydroisoquinoline-1-carboxamido)benzoic acid, TFA salt]
18 | 6.37 | < 5 |  | CN1CCN(c2cccc3c2CCN(C(=O)c2cn(-c4cccc(Cl)c4F)nn2)[C@@H]3C(=O)Nc2ccc(C(=O)O)cc2)C(=O)C1 [Example 80, (S)-4-(2-(1-(3-chloro-2-fluorophenyl)-1H-1,2,3-triazole-4-carbonyl)-5-(4-methyl-2-oxopiprazin-1-yl)-1,2,3,4-tetrahydroisoquinoline-1-carboxamido)benzoic acid, HCl]
19 | 20.7 | < 5 |  | O=C(O)c1ccc(NC(=O)C2c3cccc(N4CCCCC4=O)c3CCN2C(=O)c2cn(-c3cccc(Cl)c3F)nn2)cc1 (stereo not shown) [Example 81, 4-(2-(1-(3-chloro-2-fluorophenyl)-1H-1,2,3-triazole-4-carbonyl)-5-(2-oxopiperidin-1-yl)-1,2,3,4-tetrahydroisoquinoline-1-carboxamido)benzoic acid]
20 | 12.1 | < 5 |  | COC1CN(c2cccc3c2CCN(C(=O)c2cn(-c4cccc(Cl)c4F)nn2)C3C(=O)Nc2ccc(C(=O)O)cc2)C1 (stereo not shown) [Example 83, 4-(2-(1-(3-chloro-2-fluorophenyl)-1H-1,2,3-triazole-4-carbonyl)-5-(3-methoxyazetidin-1-yl)-1,2,3,4-tetrahydroisoquinoline-1-carboxamido)benzoic acid, TFA salt]
21 | 3.84 | < 5 |  | O=C(O)c1ccc(NC(=O)[C@@H]2c3cccc(N4CCOCC4)c3CCN2C(=O)c2cn(-c3cccc(Cl)c3F)cn2)cc1 [Example 91, (S)-4-(2-(1-(3-Chloro-2-fluorophenyl)-1H-imidazole-4-carbonyl)-5-morpholino-1,2,3,4-tetrahydroisoquinoline-1-carboxamido)benzoic acid, TFA salt]
22 | 5.6 | < 5 |  | O=C(O)c1ccc(NC(=O)C2c3cccc(N4CCC(N5CCCC5=O)CC4)c3CCN2C(=O)c2cn(-c3cccc(Cl)c3F)cn2)cc1 (stereo not shown) [Example 92, 4-(2-(1-(3-Chloro-2-fluorophenyl)-1H-imidazole-4-carbonyl)-5-(4-(2-oxopyrrolidin-1-yl)piperidin-1-yl)-1,2,3,4-tetrahydroisoquinoline-1-carboxamido)benzoic acid, TFA salt]
23 | 34 | 20.3 |  | CN(C)C1CCN(c2cccc3c2CCN(C(=O)c2cnn(-c4cccc(Cl)c4F)c2)C3C(=O)Nc2ccc(OC(F)F)cc2)CC1 (stereo not shown) [Example 96, 2-(1-(3-chloro-2-fluorophenyl)-1H-pyrazole-4-carbonyl)-N-(4-(difluoromethoxy)phenyl)-5-(4-(dimethylamino)piperidin-1-yl)-1,2,3,4-tetrahydroisoquinoline-1-carboxamide, TFA salt]
